Where “and” joins values, the source holds several entries; their conditions need not be identical. Equal entries are not always repeated. Calls of active or inactive are those of the source. The rule behind the calls is not given here.
Key:
[1] = target: Rho-associated protein kinase 2 (Homo sapiens) (UniProt O75116); experiment: Inhibition of human ROCK2 assessed as percent of control at 2000 nM by KINOMEscan assay relative to control; design: scale not given: the % may be the effect or the level left
[2] = target: Ribosomal protein S6 kinase alpha-4 (Homo sapiens) (UniProt O75676); experiment: Inhibition of human N-terminal RPS6KA4 kinase domain assessed as percent of control at 2000 nM by KINOMEscan assay relative to control; design: scale not given: the % may be the effect or the level left
[3] = target: Mitogen-activated protein kinase kinase kinase 1 (Homo sapiens) (UniProt Q13233); experiment: Inhibition of human MAP3K1 assessed as percent of control at 2000 nM by KINOMEscan assay relative to control; design: scale not given: the % may be the effect or the level left
[4] = target: Citron Rho-interacting kinase (Homo sapiens) (UniProt O14578); experiment: Inhibition of human CIT assessed as percent of control at 2000 nM by KINOMEscan assay relative to control; design: scale not given: the % may be the effect or the level left
[5] = target: Tyrosine-protein kinase JAK1 (Homo sapiens) (UniProt P23458); experiment: Inhibition of human JAK1 JH1 catalytic domain assessed as percent of control at 2000 nM by KINOMEscan assay relative to control; design: scale not given: the % may be the effect or the level left
Sequence of Tyrosine-protein kinase JAK1 (Homo sapiens) (P23458 whole entry, the tested form may be a part): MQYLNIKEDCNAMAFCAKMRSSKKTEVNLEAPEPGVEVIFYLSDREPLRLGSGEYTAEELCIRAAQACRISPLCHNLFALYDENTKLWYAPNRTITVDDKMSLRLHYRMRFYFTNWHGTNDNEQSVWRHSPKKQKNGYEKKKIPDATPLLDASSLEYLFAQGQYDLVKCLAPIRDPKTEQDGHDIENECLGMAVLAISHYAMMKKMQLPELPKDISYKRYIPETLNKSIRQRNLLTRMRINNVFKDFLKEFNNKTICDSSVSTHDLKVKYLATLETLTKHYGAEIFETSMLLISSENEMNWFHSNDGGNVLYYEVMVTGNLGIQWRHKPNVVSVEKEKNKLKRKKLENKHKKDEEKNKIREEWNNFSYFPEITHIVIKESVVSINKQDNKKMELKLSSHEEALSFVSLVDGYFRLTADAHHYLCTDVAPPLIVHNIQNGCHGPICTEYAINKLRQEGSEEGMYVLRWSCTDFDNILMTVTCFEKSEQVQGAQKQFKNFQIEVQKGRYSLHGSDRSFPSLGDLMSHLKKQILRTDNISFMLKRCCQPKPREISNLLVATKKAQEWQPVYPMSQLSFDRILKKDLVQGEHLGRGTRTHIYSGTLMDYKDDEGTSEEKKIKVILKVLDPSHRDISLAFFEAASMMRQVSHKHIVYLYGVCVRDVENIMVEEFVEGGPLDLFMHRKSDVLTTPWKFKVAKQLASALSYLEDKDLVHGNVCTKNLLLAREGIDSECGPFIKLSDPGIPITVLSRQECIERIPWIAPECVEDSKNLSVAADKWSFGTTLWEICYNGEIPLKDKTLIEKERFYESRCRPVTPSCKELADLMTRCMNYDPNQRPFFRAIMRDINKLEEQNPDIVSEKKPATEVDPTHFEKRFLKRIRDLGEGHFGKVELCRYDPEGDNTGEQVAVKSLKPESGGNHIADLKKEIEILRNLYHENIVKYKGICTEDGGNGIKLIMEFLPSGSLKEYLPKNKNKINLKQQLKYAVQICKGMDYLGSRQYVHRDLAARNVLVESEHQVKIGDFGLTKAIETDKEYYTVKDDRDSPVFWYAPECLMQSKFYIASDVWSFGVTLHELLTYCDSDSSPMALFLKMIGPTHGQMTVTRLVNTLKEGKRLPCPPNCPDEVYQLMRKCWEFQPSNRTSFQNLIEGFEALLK

[6] = target: Serine/threonine-protein kinase RIO3 (Homo sapiens) (UniProt O14730); experiment: Inhibition of human RIOK3 assessed as percent of control at 2000 nM by KINOMEscan assay relative to control; design: scale not given: the % may be the effect or the level left
[7] = target: Myosin light chain kinase 2, skeletal/cardiac muscle (Homo sapiens) (UniProt Q9H1R3); experiment: Inhibition of human MYLK2 assessed as percent of control at 2000 nM by KINOMEscan assay relative to control; design: scale not given: the % may be the effect or the level left
[8] = target: Mitogen-activated protein kinase kinase kinase kinase 2 (Homo sapiens) (UniProt Q12851); experiment: Inhibition of human MAP4K2 assessed as percent of control at 2000 nM by KINOMEscan assay relative to control; design: scale not given: the % may be the effect or the level left
[9] = tested on: Epidermal growth factor receptor (Homo sapiens), P00533 [L858R,T790M]; experiment: Inhibition of human EGFR L858R/T790M double mutant assessed as percent of control at 2000 nM by KINOMEscan assay relative to control; design: scale not given: the % may be the effect or the level left
[10] = tested on: Epidermal growth factor receptor (Homo sapiens), P00533 [UNDEFINED MUTATION]; experiment: Inhibition of human EGFR L747-S752del/P753S double mutant assessed as percent of control at 2000 nM by KINOMEscan assay relative to control; design: scale not given: the % may be the effect or the level left
[11] = target: Serine/threonine-protein kinase MARK2 (Homo sapiens) (UniProt Q7KZI7); experiment: Inhibition of human MARK2 assessed as percent of control at 2000 nM by KINOMEscan assay relative to control; design: scale not given: the % may be the effect or the level left
Sequence of Serine/threonine-protein kinase MARK2 (Homo sapiens) (Q7KZI7 whole entry): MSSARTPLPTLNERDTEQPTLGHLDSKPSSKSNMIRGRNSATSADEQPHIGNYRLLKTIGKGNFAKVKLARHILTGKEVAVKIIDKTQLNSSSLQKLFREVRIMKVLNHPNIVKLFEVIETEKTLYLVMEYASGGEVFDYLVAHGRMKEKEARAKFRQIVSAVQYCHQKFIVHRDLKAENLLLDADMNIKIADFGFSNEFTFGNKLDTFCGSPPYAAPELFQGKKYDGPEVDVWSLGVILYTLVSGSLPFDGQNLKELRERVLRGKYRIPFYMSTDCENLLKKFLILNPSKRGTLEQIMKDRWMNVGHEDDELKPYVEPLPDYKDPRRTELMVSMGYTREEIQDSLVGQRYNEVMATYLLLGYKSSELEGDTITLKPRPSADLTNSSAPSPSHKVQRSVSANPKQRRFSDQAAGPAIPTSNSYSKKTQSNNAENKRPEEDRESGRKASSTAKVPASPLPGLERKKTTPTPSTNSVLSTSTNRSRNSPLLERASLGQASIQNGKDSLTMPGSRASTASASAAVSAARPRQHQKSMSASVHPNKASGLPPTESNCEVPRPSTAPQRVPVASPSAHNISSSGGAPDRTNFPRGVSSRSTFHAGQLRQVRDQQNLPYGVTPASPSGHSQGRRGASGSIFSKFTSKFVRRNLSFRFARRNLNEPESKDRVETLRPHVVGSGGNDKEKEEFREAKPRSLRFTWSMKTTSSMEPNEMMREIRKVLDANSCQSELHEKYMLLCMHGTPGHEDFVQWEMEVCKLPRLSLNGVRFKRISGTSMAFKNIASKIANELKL

[12] = target: Serine/threonine-protein kinase 38 (Homo sapiens) (UniProt Q15208); experiment: Inhibition of human NDR1 assessed as percent of control at 2000 nM by KINOMEscan assay relative to control; design: scale not given: the % may be the effect or the level left
[13] = target: Serine/threonine-protein kinase PLK1 (Homo sapiens) (UniProt P53350); experiment: Inhibition of human PLK1 assessed as percent of control at 2000 nM by KINOMEscan assay relative to control; design: scale not given: the % may be the effect or the level left
Sequence of Serine/threonine-protein kinase PLK1 (Homo sapiens) (P53350 whole entry): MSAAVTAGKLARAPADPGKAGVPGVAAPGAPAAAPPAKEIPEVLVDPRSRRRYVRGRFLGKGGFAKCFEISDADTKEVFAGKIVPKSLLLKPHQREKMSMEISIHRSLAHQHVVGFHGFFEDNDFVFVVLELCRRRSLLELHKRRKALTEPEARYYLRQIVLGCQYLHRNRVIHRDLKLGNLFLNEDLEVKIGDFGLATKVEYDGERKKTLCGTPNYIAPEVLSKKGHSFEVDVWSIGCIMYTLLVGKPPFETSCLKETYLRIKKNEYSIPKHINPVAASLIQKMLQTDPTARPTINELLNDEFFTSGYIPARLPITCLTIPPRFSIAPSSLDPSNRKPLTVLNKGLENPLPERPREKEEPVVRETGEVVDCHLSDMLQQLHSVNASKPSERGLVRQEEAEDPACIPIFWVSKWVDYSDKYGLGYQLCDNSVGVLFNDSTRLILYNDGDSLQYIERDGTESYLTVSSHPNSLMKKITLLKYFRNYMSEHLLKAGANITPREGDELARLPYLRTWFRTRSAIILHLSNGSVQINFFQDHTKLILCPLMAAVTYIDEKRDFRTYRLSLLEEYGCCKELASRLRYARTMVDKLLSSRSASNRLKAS

CWR22R = experiment: Antitumor activity against human 22Rv1 cells expressing AR-V7 xenografted in male nude mouse assessed as suppression of tumor growth at 50 mg/kg, administered twice a day for 40 days; type: functional, organism-based
[14] = tested on: Proto-oncogene tyrosine-protein kinase receptor Ret (Homo sapiens), P07949 [M918T]; experiment: Inhibition of human RET M918T mutant assessed as percent of control at 2000 nM by KINOMEscan assay relative to control; design: scale not given: the % may be the effect or the level left
[15] = target: AP2-associated protein kinase 1 (Homo sapiens) (UniProt Q2M2I8); experiment: Inhibition of human AAK1 assessed as percent of control at 2000 nM by KINOMEscan assay relative to control; design: scale not given: the % may be the effect or the level left
[16] = target: Tyrosine-protein kinase Mer (Homo sapiens) (UniProt Q12866); experiment: Inhibition of human MERTK assessed as percent of control at 2000 nM by KINOMEscan assay relative to control; design: scale not given: the % may be the effect or the level left
[17] = target: Calcium/calmodulin-dependent protein kinase type II subunit alpha (Homo sapiens) (UniProt Q9UQM7); experiment: Inhibition of human CAMK2A assessed as percent of control at 2000 nM by KINOMEscan assay relative to control; design: scale not given: the % may be the effect or the level left
Sequence of Calcium/calmodulin-dependent protein kinase type II subunit alpha (Homo sapiens) (Q9UQM7 whole entry, the tested form may be a part): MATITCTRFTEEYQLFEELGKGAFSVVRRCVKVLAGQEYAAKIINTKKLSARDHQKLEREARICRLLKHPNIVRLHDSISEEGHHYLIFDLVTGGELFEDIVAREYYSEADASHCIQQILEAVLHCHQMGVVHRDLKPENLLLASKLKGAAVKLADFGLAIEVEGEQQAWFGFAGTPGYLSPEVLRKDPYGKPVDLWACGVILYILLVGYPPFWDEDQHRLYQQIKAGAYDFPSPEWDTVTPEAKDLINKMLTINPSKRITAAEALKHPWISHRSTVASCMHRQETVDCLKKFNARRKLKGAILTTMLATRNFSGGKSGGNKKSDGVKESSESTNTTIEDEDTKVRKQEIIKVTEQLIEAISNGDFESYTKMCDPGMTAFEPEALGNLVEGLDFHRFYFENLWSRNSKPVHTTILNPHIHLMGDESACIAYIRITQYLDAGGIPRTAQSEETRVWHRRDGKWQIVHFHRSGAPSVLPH

[18] = target: Ankyrin repeat and protein kinase domain-containing protein 1 (Homo sapiens) (UniProt Q8NFD2); experiment: Inhibition of human ANKK1 assessed as percent of control at 2000 nM by KINOMEscan assay relative to control; design: scale not given: the % may be the effect or the level left
[19] = target: Myosin-IIIa (Homo sapiens) (UniProt Q8NEV4); experiment: Inhibition of human MYO3A assessed as percent of control at 2000 nM by KINOMEscan assay relative to control; design: scale not given: the % may be the effect or the level left
[20] = tested on: Receptor-type tyrosine-protein kinase FLT3 (Homo sapiens), P36888 [UNDEFINED MUTATION]; experiment: Inhibition of human FLT3 ITD mutant assessed as percent of control at 2000 nM by KINOMEscan assay relative to control; design: scale not given: the % may be the effect or the level left
Sequence of Receptor-type tyrosine-protein kinase FLT3 (Homo sapiens), P36888 [UNDEFINED MUTATION] (P36888 whole entry, looked up, change not shown): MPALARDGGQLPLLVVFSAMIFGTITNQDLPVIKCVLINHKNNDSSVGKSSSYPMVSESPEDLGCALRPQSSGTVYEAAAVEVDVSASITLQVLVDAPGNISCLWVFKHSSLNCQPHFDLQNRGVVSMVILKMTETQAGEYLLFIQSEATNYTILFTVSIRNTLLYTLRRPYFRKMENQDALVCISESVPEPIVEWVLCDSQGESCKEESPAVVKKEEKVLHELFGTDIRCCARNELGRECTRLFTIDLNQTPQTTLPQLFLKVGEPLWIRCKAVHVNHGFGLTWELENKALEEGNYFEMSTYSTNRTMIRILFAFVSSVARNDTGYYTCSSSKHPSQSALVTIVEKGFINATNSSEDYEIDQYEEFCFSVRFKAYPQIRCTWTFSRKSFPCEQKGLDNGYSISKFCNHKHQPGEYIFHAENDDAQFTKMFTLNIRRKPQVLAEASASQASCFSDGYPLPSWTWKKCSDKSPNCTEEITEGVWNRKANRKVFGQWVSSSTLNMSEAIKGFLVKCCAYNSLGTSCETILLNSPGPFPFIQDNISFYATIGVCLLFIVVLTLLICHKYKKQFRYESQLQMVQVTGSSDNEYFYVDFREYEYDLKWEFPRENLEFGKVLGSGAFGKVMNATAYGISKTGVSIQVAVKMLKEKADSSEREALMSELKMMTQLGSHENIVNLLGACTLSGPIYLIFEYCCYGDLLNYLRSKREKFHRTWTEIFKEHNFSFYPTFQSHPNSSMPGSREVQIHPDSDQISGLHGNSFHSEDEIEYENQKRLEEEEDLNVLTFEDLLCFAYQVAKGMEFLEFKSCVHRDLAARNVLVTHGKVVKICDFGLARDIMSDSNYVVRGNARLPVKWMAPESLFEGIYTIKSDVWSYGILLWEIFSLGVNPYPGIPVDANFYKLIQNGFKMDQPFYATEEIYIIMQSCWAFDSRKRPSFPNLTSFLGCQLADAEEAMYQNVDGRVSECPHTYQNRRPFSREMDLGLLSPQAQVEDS

[21] = target: Ephrin type-B receptor 6 (Homo sapiens) (UniProt O15197); experiment: Inhibition of human EPHB6 assessed as percent of control at 2000 nM by KINOMEscan assay relative to control; design: scale not given: the % may be the effect or the level left
[22] = tested on: Tyrosine-protein kinase ABL1 (Homo sapiens), P00519 [T315I]; experiment: Inhibition of non-phosphorylated human ABL1 T315I mutant assessed as percent of control at 2000 nM by KINOMEscan assay relative to control; design: scale not given: the % may be the effect or the level left
[23] = target: Activin receptor type-1B (Homo sapiens) (UniProt P36896); experiment: Inhibition of human ACVR1B assessed as percent of control at 2000 nM by KINOMEscan assay relative to control; design: scale not given: the % may be the effect or the level left
[24] = target: Activin receptor type-2B (Homo sapiens) (UniProt Q13705); experiment: Inhibition of human ACVR2B assessed as percent of control at 2000 nM by KINOMEscan assay relative to control; design: scale not given: the % may be the effect or the level left
Sequence of Activin receptor type-2B (Homo sapiens) (Q13705 whole entry, canonical isoform): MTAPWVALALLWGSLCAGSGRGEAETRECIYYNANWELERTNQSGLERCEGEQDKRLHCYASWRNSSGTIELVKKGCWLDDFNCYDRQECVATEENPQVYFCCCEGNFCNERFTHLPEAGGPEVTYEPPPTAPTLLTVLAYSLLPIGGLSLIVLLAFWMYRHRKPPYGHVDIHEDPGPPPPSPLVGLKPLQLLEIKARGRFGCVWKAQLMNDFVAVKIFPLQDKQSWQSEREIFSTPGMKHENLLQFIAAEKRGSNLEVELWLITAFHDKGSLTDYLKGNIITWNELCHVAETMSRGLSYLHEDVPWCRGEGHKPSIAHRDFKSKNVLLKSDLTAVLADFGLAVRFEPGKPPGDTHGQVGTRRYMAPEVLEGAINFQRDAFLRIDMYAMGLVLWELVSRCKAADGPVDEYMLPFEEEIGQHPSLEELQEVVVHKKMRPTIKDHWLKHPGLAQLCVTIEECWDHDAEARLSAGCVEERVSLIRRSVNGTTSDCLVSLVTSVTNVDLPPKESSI

[25] = target: Casein kinase I isoform gamma-3 (Homo sapiens) (UniProt Q9Y6M4); experiment: Inhibition of human CSNK1G3 assessed as percent of control at 2000 nM by KINOMEscan assay relative to control; design: scale not given: the % may be the effect or the level left
[26] = target: Interleukin-1 receptor-associated kinase 3 (Homo sapiens) (UniProt Q9Y616); experiment: Inhibition of human IRAK3 assessed as percent of control at 2000 nM by KINOMEscan assay relative to control; design: scale not given: the % may be the effect or the level left
[27] = target: Microtubule-associated serine/threonine-protein kinase 1 (Homo sapiens) (UniProt Q9Y2H9); experiment: Inhibition of human MAST1 assessed as percent of control at 2000 nM by KINOMEscan assay relative to control; design: scale not given: the % may be the effect or the level left
[28] = target: Uncharacterized serine/threonine-protein kinase SBK3 (Homo sapiens) (UniProt P0C264); experiment: Inhibition of human SgK110 assessed as percent of control at 2000 nM by KINOMEscan assay relative to control; design: scale not given: the % may be the effect or the level left
[29] = target: Tyrosine-protein kinase Yes (Homo sapiens) (UniProt P07947); experiment: Inhibition of human YES assessed as percent of control at 2000 nM by KINOMEscan assay relative to control; design: scale not given: the % may be the effect or the level left
Sequence of Tyrosine-protein kinase Yes (Homo sapiens) (P07947 2-543 limits assumed): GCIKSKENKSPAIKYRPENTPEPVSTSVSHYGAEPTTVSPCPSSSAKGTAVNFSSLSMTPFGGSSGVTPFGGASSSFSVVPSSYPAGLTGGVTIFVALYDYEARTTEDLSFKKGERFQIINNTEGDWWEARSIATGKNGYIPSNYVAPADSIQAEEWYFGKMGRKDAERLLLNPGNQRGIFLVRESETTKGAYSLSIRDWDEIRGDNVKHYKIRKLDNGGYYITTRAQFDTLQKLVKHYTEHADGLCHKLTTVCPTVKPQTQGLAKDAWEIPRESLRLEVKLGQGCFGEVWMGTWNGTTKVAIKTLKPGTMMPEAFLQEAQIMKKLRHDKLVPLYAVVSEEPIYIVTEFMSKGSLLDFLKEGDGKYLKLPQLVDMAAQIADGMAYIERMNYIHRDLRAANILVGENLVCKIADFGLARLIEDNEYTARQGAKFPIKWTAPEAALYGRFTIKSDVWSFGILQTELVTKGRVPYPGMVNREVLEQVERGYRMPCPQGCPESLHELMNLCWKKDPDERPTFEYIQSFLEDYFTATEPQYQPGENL

With `CN(C)C(=O)c1ccc(N2CCCN(c3ccnc4sc(C(N)=O)c(N)c34)CC2)cc1` the Activity [1] was 100% and 80%, the Activity [2] was 96% and 100% and the Activity [3] was 84% and 90%. The Activity [4] was 51% and 65%, the Activity [5] was 57% and 82% and the Activity [6] was 100% and 95%. For the same compound, the Activity [7] was 100%, the Activity [8] was 84% and 66% and the Activity [9] was 100% and 87%. The Activity [10] was 99% and 100%, the Activity [11] was 100% and 96% and the Activity [12] was 100% and 80%. For the same compound, the Activity [13] was 95% and 89%, the Activity (CWR22R) was “Active” and the Activity [14] was 98%. The Activity [15] was 94% and 90%, the Activity [16] was 89% and 100% and the Activity [17] was 90% and 100%. For the same compound, the Activity [18] was 100% and 91%, the Activity [19] was 100% and the Activity [20] was 82% and 72%. For the same compound, the Activity [21] was 95% and 89%, the Activity [22] was 90% and 78% and the Activity [23] was 100% and 99%. For the same compound, the Activity [24] was 100% and 86%, the Activity [25] was 95% and 80% and the Activity [26] was 93% and 89%. The Activity [27] was 92%, the Activity [28] was 95% and 100% and the Activity [29] was 99% and 100%.
